What all share (format): cell-based
One assay deals with T1, p-STAT3 (Homo sapiens, UniProt P40763).
T1 construct: endogenous in cells
Nature of the assay: inhibition of p-STAT3 by western blot and immunofluorescence in PDAC cell lines. Particulars: all tested PDAC cell lines; western blot, immunofluorescence. On the procedure: The chemical synthesis of WP1066 and WP1732 and their characterization was performed at U.T. MD Anderson Cancer Center. In vitro efficacy of both inhibitors was assessed using proliferation and apoptosis induction assays in a panel of patient-derived and commercially-available PDAC cell lines. Inhibition of p-STAT3 was investigated using western blot (WB) and immunofluorescence. […] Observed IC50 values ranged from 0.5 to 2 μM.

The test system of assay [1] is patient-derived and commercially-available PDAC cell lines. Nature of the assay: apoptosis induction assay in PDAC cell lines. Particulars: all tested PDAC cell lines.
Assay [2] has the same test system. Nature of the assay: proliferation assay in a panel of PDAC cell lines. Particulars: range over all tested PDAC cell lines.

T1 sequence (P40763 whole entry): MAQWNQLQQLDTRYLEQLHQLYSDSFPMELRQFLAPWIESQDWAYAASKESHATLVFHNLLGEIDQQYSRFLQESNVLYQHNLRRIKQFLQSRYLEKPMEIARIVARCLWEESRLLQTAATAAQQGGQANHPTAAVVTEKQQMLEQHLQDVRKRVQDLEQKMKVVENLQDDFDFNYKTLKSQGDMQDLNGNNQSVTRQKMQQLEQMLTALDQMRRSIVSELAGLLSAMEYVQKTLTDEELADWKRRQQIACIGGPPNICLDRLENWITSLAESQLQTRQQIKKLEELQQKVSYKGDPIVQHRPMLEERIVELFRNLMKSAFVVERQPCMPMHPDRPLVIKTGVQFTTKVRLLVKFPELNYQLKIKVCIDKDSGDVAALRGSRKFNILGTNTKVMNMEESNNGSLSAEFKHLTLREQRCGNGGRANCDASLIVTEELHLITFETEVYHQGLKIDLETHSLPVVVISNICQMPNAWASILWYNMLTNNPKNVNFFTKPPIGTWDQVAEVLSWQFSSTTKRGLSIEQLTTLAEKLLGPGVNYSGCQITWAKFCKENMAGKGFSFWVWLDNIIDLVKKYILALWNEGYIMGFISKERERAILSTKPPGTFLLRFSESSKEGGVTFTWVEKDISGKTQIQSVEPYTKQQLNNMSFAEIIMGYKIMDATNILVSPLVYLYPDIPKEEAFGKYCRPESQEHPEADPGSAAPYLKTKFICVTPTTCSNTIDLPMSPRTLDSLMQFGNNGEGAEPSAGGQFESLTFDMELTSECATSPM

For the compound `C[C@H](NC(=O)/C(C#N)=C/c1cccc(Br)n1)c1ccccc1` [WP1066], the “inhibition of p-STAT3 and its nuclear localization” value on p-STAT3 was “inhibit p-STAT3 and its nuclear localization”. For the same compound, the apoptosis induction result in assay [1] is “induce apoptosis”. Further, the IC50 (usually the point on the concentration scale where inhibition reaches its midpoint) in assay [2] was 500 to 2000 nM.

Values taken from patent US20220175744A1, “COMBINATIONS OF TRANSCRIPTION INHIBITORS AND IMMUNE CHECKPOINT INHIBITORS FOR TREATMENT OF DISEASE” (Board of Regents, The University of Texas System, priority 2019, published 2022).
